Structures are written as SMILES. Converted amounts (≈) assume the structure as drawn. Where two headings read alike, the source gives them in different places. Non-standard residues stand in square brackets, D forms with d. Residues, ends and D or L forms follow the SMILES beside them. *: point of attachment. Palmitoyl = CCCCCCCCCCCCCCCC(=O)*

What all share (format): cell-based
Data set [1] in a line: Cytotoxicity, XTT viability, non-cancer cells. To be noted: mouse, non-cancer cell line, 24 h incubation, read-out: LC50, 3T3. The protocol: Prostate cancer cell lines (CL1 and 22RV1; ATCC, USA) were grown in RPMI-1640 supplemented with 10% FCS (Biological Industries, Beit Haemek, Israel). N1H-3T3 mouse fibroblast cell line (ATCC, USA) was grown in DMEM supplemented with 10% bovine serum. To test cytotoxicity against the cancer cells, aliquots of medium containing 1×10^4 cells were distributed into a 96-well plate (Falcon). After one day, the media were replaced with 90 μl of fresh media and 10 μl of a solution containing different concentrations of the peptides. The plate was then incubated for 24 h before adding to each well 50 μl of XTT reaction solution (Biological Industries, Beit Haemek, Israel); viability was determined as previously described (Papo et al., (2003) J. Biol. Chem. 278:21018-23). The LC50 (concentration at which 50% of the cells die) for each peptide was obtained from the dose-dependent cell viability curves.

Data set [2] deals with Aspergillus fumigatus ATCC 26430. Nature of the data set: microbe, parasite or virus in culture.
In data set [3] the test system is Candida albicans ATCC 10231. Nature of the data set: microbe, parasite or virus in culture. Summed up: (§1)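 In this assay, each strain, prepared at 1×10^4 CFU/ml before mixing, met serial twofold peptide dilutions in RPMI 1640 buffered with 0.165 M MOPS. Unless noted, pH was 7.4; a pH 5.5 condition was also run. After 24-48 h incubation (35 °C, agitated), wells were scored at 620 nm for total inhibition.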

The test system of data set [4] is Cryptococcus neoformans ATCC MYA-422. Nature of the data set: microbe, parasite or virus in culture.
The test system of data set [5] is Staphylococcus aureus ATCC 6538P. Summed up: (§2)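 MIC = lowest concentration with 100% growth inhibition, judged from A600 after 18-20 h incubation at 37° C. Bacteria at 1×10^6 CFU/ml in LB (pH 7.4 unless pH 5.5 stated) combined with equal volume of serially 2-fold diluted lipopeptide.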
Data set [6] has as its system Pseudomonas aeruginosa ATCC 27853. The method, boiled down:
as §2

The next data set concerns E. coli ATCC 35218. To be noted: ATCC 35218, pH 7.4. Summed up: as §2
Another data set concerns E. aerogenes ATCC 35029. The following applies: ATCC 35029, pH 7.4. The method, boiled down: as §2
Data set [7] deals with human red blood cells (hRBC). Kind of data set: Hemolytic activity, release of hemoglobin at 540 nm. Here is the method: Fresh human red blood cells (hRBC) with EDTA were rinsed 3 times with PBS (35 mM phosphate buffer/0.15 M NaCl, pH 7.3) by centrifugation for 10 min at 800 g and resuspended in PBS. Peptides dissolved in PBS were then added to 50 μl of a solution of the stock hRBC in PBS to reach a final volume of 100 μl (final erythrocyte concentration, 4% v/v). The resulting suspension was incubated under agitation for 60 min at 37° C. The samples were then centrifuged at 800×g for 10 min. Release of hemoglobin was monitored by measuring the absorbance of the supernatant at 540 nm. Controls for zero hemolysis (blank) and 100% hemolysis consisted of hRBC suspended in PBS and Triton 1%, respectively.

The next data set relates to B. subtilis ATCC 6051. The following applies: Table 8, lipopeptides vs parent peptides; pH 7.4.
Data set [8] concerns Aspergillus niger ATCC 9642. The following applies: Table 14, lipopeptides vs parent peptides; pH 7.4. The protocol:
The antifungal activity of the lipopeptides was examined in sterile 96-well plates (Nunc F96 microtiter plates) in a final volume of 200 μL as follows: 100 µl of a suspension containing fungi at a concentration of 1×10^4 Colony-Forming Units (CFU)/ml in culture medium (RPMI 1640, 0.165 M MOPS with L-glutamine, without NaHCO3) at pH 7.4 or pH 5.5 (adjustment of the pH was done by diluted solutions of HCl and NaOH) were added to 100 μl of water containing the peptide in serial 2-fold dilutions in water. The fungi were incubated in the presence of the lipopeptides for 24-48 h at 35° C. in a Binder KB115 incubator under agitation. Growth inhibition was determined by measuring the absorbance at 620 nm with a Microplate autoreader E1309 (Bio-Tek Instruments). Antifungal activity is expressed as the minimal inhibitory concentration (MIC), the concentration at which 100% inhibition of fungi growth was observed after the incubation time mentioned above. The fungi used were: Aspergillus niger ATCC 9642, Candida albicans ATCC 10231 and Cryptococcus neoformans ATCC 66031. If not indicated otherwise, the fungi growth was detected at pH 7.4.

The test system of data set [9] is Cryptococcus neoformans ATCC 66031. Kind of data set: microbe, parasite or virus in culture. To be noted: Table 10; pH 7.4. Summed up: as §1
The test system of data set [10] is Aspergillus flavus ATCC 9643. To be noted: Table 14, lipopeptides vs parent peptides; pH 7.4.
For data set [11], the system named is methicilin-resistant Staphylococcus aureus (MRSA) ATCC 700698. The following applies: Table 4; pH 7.4. Summed up:
as §2

Data set [12] has as its system Acinetobacter baumannii ATCC 19606. The following applies: pH 7.4. Summed up: as §2
The subject of data set [13] is Enterobacter cloacae ATCC 49141. To be noted: Table 4; pH 7.4. Summed up:
as §2

Data set [14] relates to Escherichia coli ATCC 25922. To be noted: pH 7.4. Summed up:
as §2

For data set [15], the system named is Enterococcus faecalis ATCC 29212. The following applies: Table 4; pH 7.4. The method, boiled down:
as §2

The mark [16] stands for this setting: Table 14, lipopeptides vs parent peptides, pH 7.4.
Where [17] appears, read: Table 8, lipopeptides vs parent peptides, pH 7.4.
Setting [18] is: Table 8, lipopeptides vs parent peptides.

Regarding `CC(C)C[C@@H](N)C(=O)N[C@@H](CCCCN)C(=O)N[C@@H](CCCCN)C(=O)N[C@H](CC(C)C)C(=O)N[C@H](CC(C)C)C(=O)N[C@@H](CCCCN)C(=O)N[C@@H](CCCCN)C(=O)N[C@H](CC(C)C)C(=O)N[C@H](CC(C)C)C(=O)N[C@@H](CCCCN)C(=O)N[C@@H](CCCCN)C(=O)N[C@H](CC(C)C)C(N)=O` [[D]-L6K6, LKKLLKKLLKKL, reference compound] (H-[dL]KK[dL][dL]KK[dL][dL]KK[dL]-NH2; N-terminus assumed), in [1], the CC50 at 24 h was above 100 µM. The “Minimal Inhibitory Concentration, A. fumigatus ATCC 26430” value in data set [2] (ATCC 26430, pH 7.4) is above 50 µM. Moreover, the “Minimal Inhibitory Concentration, C. albicans ATCC 10231” value in data set [3] (ATCC 10231, pH 7.4) was above 50 µM. Further, the “Minimal Inhibitory Concentration, C. neoformans ATCC MYA-422” value in data set [4] (ATCC MYA-422, pH 7.4) is above 50 µM. Besides, the “Minimal Inhibitory Concentration, S. aureus ATCC 6538P” value in data set [5] (ATCC 6538, pH 7.4) was above 50 µM. Moreover, the “Minimal Inhibitory Concentration, P. aeruginosa ATCC 27853” value in data set [6] (ATCC 27853, pH 7.4) is above 50 µM. Also, in the data set with E. coli ATCC 35218, the “Minimal Inhibitory Concentration, E. coli ATCC 35218” value was 50 µM. In the data set with E. aerogenes ATCC 35029, the “Minimal Inhibitory Concentration, E. aerogenes ATCC 35029” value is above 50 µM.
Regarding `CCCCCCCCCCCCCCCC(=O)N[C@@H](CCCCN)C(=O)N[C@@H](C)C(=O)N[C@H](C)C(=O)N[C@H](C)C(=O)N[C@@H](CCCCN)C(=O)N[C@@H](C)C(=O)N[C@@H](C)C(=O)N[C@H](C)C(=O)N[C@@H](CCCCN)C(=O)N[C@H](C)C(=O)N[C@@H](C)C(=O)N[C@@H](CCCCN)C(N)=O` [lipopeptide 5, (CH3—(CH2)14—CO—)-Lys-Ala-D-Ala-D-Ala-Lys-Ala-Ala-D-Ala-Lys-D-Ala-Ala-Lys-NH2] (Palmitoyl-KA[dA][dA]KAA[dA]K[dA]AK-NH2), the hemolytic activity entry in [7] (at concentrations lower than 12 μM, human red blood cells (FIGS. 1-5)) was “do not exhibit significant hemolytic activity”; in data set [7] (at concentrations lower than 12.5 μM, human red blood cells, 1 h) it was “not hemolytic”. Besides, the “Minimal Inhibitory Concentration, B. subtilis (ATCC 6051)” value in the data set on B. subtilis ATCC 6051 was 3.125 µM. Besides, the “Minimal Inhibitory Concentration, Aspergillus niger (ATCC 9642)” value in [8] was found to be 10 µM. The “Minimal Inhibitory Concentration, A. fumigatus ATCC 26430” value in data set [2] (Table 10, pH 7.4) was determined as 100 µM. Moreover, the “Minimal Inhibitory Concentration, Aspergillus fumigatus (ATCC 26430)” value in data set [2] (setting [16]) was found to be 100 µM. Moreover, the “Minimal Inhibitory Concentration, C. albicans ATCC 10231” value in [3] (Table 10, pH 7.4) amounted to 12.5 µM. Also, in data set [3] (Table 14, lipopeptides vs parent peptides, pH 7.4, read-out: Minimal Inhibitory Concentration, Candida Albicans (ATCC 10231)), the MIC was 12.5 µM (≈ 16.7 µg/mL). Besides, in [9], the “Minimal Inhibitory Concentration, C. neoformans ATCC 66031” value is 1.56 µM. For the same compound, in [10], the “Minimal Inhibitory Concentration, Aspergillus flavus (ATCC 9643)” value came to 80 µM. Further, the “Minimal Inhibitory Concentration, Cryptococcus neoformans (ATCC MYA-422)” value in data set [4] (setting [16]) was 1.56 µM. In addition, the “Minimal Inhibitory Concentration, S. aureus” value in data set [5] (Table 4, pH 7.4) was 12.5 µM. For the same compound, the “Minimal Inhibitory Concentration, S. aureus ATCC 6538P” value in data set [5] (setting [17]) stood at 12.5 µM. The “Minimal Inhibitory Concentration, S. aureus (MRSA)” value in [11] came to 12.5 µM. For the same compound, the “Minimal Inhibitory Concentration, A. Baumaannii” value in [12] (Table 4) was 6.25 µM. Besides, the “Minimal Inhibitory Concentration, A. baumannii ATCC 19606” value in data set [12] (setting [18]) is 6.25 µM. Further, the “Minimal Inhibitory Concentration, E. cloacae” value in data set [13] came out at 25 µM. Besides, the “Minimal Inhibitory Concentration, P. Aeruginosa” value in [6] (Table 4, pH 7.4) is 6.25 µM. Besides, the “Minimal Inhibitory Concentration, P. aeruginosa ATCC 27853” value in [6] (setting [17]) turned out to be 6.25 µM. Further, in data set [14] (Table 4), the “Minimal Inhibitory Concentration, E. coli” value is 6.25 µM. Also, in data set [14] (setting [18]), the “Minimal Inhibitory Concentration, E. coli (ATCC 25922)” value turned out to be 6.25 µM. In addition, the “Minimal Inhibitory Concentration, E. faecalis” value in [15] came out at 12.5 µM.

These data come from patent US8445636B2, “Antimicrobial and anticancer lipopeptides” (Yeda Research & Development Co. Ltd., priority 2003, dated 2013).
